Calls of active or inactive are those of the source. The calls are words filed in the database; no cut-off is given here.
Tests used:
[1] = test system: Receptor-type tyrosine-protein kinase FLT3 (Homo sapiens), P36888 [D835V]
[2] = target: Testis-specific serine/threonine-protein kinase 3 (Homo sapiens) (UniProt Q96PN8)
[3] = test system: Epidermal growth factor receptor (Homo sapiens), P00533 [UNDEFINED MUTATION]
[4] = target: Receptor-type tyrosine-protein kinase FLT3 (Homo sapiens) (UniProt P36888)
[5] = target: Phosphatidylinositol 4,5-bisphosphate 3-kinase catalytic subunit delta isoform (Homo sapiens) (UniProt O00329)
[6] = target: Rho-associated protein kinase 1 (Homo sapiens) (UniProt Q13464)
[7] = target: Phosphatidylinositol 4-phosphate 5-kinase type-1 gamma (Homo sapiens) (UniProt O60331)
[8] = target: Serine/threonine-protein kinase MARK1 (Homo sapiens) (UniProt Q9P0L2)
[9] = target: Serine/threonine-protein kinase pim-2 (Homo sapiens) (UniProt Q9P1W9)
[10] = target: Cyclin-dependent kinase-like 1 (Homo sapiens) (UniProt Q00532)
[11] = target: Angiopoietin-1 receptor (Homo sapiens) (UniProt Q02763)
[12] = target: Phosphorylase b kinase regulatory subunit alpha, liver isoform (Homo sapiens) (UniProt P46019)
[13] = target: Serine/threonine-protein kinase Nek2 (Homo sapiens) (UniProt P51955)
[14] = test system: Mast/stem cell growth factor receptor Kit (Homo sapiens), P10721 [D816V]
[15] = target: Serine/threonine-protein kinase PLK3 (Homo sapiens) (UniProt Q9H4B4)
[16] = target: Serine/threonine-protein kinase 10 (Homo sapiens) (UniProt O94804)
[17] = target: Serine/threonine-protein kinase ULK1 (Homo sapiens) (UniProt O75385)
[18] = target: Ribosomal protein S6 kinase alpha-2 (Homo sapiens) (UniProt Q15349)
[19] = target: Dual specificity mitogen-activated protein kinase kinase 5 (Homo sapiens) (UniProt Q13163)
[20] = test system: Tyrosine-protein kinase ABL1 (Homo sapiens), P00519 [F317I]
[21] = target: Tyrosine-protein kinase CSK (Homo sapiens) (UniProt P41240)
[22] = target: Serine/threonine-protein kinase SIK2 (Homo sapiens) (UniProt Q9H0K1)
[23] = target: Vascular endothelial growth factor receptor 2 (Homo sapiens) (UniProt P35968)
[24] = target: RAC-alpha serine/threonine-protein kinase (Homo sapiens) (UniProt P31749)
[25] = target: Serine/threonine-protein kinase pim-1 (Homo sapiens) (UniProt P11309)
[26] = target: Serine/threonine-protein kinase D1 (Homo sapiens) (UniProt Q15139)
[27] = target: Tyrosine-protein kinase Lck (Homo sapiens) (UniProt P06239)
[28] = target: Myotonin-protein kinase (Homo sapiens) (UniProt Q09013)
[29] = target: Tyrosine-protein kinase Yes (Homo sapiens) (UniProt P07947)
[30] = target: Protein kinase C epsilon type (Homo sapiens) (UniProt Q02156)
[31] = target: Mitogen-activated protein kinase 1 (Homo sapiens, UniProt P28482); test: ERK Biochemical Assay
[32] = target: Tyrosine-protein kinase JAK1 (Homo sapiens) (UniProt P23458)
[33] = target: G protein-coupled receptor kinase 4 (Homo sapiens) (UniProt P32298)
[34] = target: Activin receptor type-1B (Homo sapiens) (UniProt P36896)
[35] = target: Serine/threonine-protein kinase ULK3 (Homo sapiens) (UniProt Q6PHR2)
[36] = target: Cyclin-dependent kinase 7 (Homo sapiens, UniProt P50613)
[37] = target: 5-hydroxytryptamine receptor 2A (Homo sapiens) (UniProt P28223); conditions: Compound concentration 10.0 uM
[38] = target: Mitogen-activated protein kinase kinase kinase 4 (Homo sapiens) (UniProt Q9Y6R4)
[39] = target: Serine/threonine-protein kinase PAK 1 (Homo sapiens) (UniProt Q13153)
[40] = test system: Mast/stem cell growth factor receptor Kit (Homo sapiens), P10721 [A829P]
[41] = target: Calcium/calmodulin-dependent protein kinase type II subunit alpha (Homo sapiens) (UniProt Q9UQM7)
[42] = target: Fibroblast growth factor receptor 4 (Homo sapiens) (UniProt P22455)
[43] = target: Ephrin type-A receptor 2 (Homo sapiens) (UniProt P29317)
[44] = test system: Tyrosine-protein kinase ABL1 (Homo sapiens), P00519 [Q252H]
[45] = target: Tyrosine-protein kinase JAK2 (Homo sapiens) (UniProt O60674)
[46] = Compound concentration 1000.0 nM
[47] = Compound concentration 100.0 nM

Calcium/calmodulin-dependent protein kinase type II subunit alpha (Homo sapiens), sequence (Q9UQM7 whole entry): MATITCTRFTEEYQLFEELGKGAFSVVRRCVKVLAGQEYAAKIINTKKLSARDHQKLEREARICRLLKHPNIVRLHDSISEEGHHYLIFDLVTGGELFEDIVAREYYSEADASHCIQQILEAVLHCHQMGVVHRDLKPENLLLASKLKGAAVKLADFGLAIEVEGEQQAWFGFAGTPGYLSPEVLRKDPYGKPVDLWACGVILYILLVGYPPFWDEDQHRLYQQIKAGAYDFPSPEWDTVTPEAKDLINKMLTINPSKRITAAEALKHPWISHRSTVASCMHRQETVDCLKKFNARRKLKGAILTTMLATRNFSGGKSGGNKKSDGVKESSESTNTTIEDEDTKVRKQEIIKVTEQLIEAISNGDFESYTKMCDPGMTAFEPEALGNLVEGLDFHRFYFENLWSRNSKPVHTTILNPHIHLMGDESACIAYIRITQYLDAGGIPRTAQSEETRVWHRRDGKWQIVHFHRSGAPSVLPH
Activin receptor type-1B (Homo sapiens), sequence (P36896 whole entry): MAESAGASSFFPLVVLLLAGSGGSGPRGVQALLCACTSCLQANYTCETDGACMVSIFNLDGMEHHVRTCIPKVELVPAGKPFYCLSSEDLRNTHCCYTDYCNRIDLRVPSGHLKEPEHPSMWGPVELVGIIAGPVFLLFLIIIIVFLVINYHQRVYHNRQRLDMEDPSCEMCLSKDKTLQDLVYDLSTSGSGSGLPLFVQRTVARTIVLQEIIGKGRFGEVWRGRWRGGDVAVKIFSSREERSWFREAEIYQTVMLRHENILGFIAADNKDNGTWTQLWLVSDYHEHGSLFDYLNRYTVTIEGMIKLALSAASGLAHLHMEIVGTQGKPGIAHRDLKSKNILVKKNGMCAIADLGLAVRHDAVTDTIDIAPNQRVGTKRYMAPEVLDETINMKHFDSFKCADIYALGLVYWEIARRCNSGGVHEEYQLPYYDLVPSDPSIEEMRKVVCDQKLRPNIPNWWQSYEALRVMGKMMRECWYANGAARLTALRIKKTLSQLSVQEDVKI
Phosphatidylinositol 4,5-bisphosphate 3-kinase catalytic subunit delta isoform (Homo sapiens), sequence (O00329 whole entry, canonical isoform): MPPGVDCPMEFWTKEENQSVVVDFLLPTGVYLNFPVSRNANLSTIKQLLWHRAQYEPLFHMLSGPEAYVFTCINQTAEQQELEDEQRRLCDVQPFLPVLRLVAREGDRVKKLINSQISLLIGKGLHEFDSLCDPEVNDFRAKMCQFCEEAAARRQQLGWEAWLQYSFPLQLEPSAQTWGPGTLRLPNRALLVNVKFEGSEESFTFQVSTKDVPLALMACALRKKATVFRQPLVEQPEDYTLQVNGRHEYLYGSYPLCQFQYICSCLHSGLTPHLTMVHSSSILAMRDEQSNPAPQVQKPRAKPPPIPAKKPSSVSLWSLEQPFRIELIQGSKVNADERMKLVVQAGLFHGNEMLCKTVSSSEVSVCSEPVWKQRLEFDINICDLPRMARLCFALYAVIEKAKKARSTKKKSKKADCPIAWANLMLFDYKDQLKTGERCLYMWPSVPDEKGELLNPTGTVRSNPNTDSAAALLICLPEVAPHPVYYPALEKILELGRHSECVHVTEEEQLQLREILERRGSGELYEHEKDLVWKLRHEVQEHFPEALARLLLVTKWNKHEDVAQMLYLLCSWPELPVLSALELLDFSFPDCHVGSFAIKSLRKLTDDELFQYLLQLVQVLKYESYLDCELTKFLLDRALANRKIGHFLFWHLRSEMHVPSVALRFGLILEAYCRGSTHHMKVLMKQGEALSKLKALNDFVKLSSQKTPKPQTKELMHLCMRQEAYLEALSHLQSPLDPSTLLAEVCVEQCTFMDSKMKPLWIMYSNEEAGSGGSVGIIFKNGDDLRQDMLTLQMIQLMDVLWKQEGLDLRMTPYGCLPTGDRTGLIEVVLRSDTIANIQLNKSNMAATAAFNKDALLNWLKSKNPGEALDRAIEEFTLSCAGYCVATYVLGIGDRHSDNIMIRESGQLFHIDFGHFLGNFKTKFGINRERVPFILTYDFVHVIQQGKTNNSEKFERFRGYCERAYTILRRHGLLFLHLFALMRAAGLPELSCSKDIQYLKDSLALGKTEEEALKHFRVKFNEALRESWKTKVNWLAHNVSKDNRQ
Serine/threonine-protein kinase 10 (Homo sapiens), sequence (O94804 whole entry, looked up): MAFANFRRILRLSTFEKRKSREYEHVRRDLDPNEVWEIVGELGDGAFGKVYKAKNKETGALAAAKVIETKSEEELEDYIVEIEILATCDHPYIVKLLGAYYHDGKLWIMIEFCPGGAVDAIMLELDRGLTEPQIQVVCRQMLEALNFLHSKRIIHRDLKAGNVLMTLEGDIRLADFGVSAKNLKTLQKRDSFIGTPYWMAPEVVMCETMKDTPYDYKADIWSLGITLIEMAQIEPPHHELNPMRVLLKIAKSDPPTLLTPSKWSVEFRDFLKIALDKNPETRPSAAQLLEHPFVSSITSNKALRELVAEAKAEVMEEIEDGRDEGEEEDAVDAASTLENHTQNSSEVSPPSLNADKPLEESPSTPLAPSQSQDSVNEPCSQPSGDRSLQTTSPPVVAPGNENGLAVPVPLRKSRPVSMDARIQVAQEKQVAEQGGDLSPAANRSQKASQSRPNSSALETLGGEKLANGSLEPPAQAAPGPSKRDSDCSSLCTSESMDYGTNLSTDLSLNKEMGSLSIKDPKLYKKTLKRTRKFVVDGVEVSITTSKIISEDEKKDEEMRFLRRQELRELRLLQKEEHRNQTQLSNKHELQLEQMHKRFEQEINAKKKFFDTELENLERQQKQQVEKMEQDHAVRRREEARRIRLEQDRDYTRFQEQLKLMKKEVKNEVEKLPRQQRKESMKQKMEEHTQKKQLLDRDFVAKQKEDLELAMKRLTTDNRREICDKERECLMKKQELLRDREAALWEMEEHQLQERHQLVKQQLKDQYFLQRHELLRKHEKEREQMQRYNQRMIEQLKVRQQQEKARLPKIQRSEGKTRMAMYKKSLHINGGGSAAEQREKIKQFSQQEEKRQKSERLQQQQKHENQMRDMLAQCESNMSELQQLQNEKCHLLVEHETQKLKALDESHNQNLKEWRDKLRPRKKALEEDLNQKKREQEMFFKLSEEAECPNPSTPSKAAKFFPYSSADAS
Protein kinase C epsilon type (Homo sapiens), sequence (Q02156 whole entry): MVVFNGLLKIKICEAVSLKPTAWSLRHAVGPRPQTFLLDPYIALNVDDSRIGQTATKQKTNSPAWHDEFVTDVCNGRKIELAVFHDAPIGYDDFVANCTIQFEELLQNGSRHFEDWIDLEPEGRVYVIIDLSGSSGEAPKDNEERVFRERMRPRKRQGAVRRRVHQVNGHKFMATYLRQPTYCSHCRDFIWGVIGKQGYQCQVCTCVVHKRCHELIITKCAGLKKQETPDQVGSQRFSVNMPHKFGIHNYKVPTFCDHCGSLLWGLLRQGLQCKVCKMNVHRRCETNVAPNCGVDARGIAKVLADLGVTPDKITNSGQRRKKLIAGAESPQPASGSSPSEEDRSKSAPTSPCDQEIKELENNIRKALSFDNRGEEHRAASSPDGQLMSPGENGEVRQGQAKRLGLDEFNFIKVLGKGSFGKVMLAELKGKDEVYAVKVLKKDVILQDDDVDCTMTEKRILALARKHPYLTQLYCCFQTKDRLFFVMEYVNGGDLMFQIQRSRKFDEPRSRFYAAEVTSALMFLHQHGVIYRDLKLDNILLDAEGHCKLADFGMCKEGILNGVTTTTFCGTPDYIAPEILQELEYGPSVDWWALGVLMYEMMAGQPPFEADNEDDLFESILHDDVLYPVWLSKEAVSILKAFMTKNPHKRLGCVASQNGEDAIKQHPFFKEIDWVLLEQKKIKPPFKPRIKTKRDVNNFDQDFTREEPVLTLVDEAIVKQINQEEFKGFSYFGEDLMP
Serine/threonine-protein kinase SIK2 (Homo sapiens), sequence (Q9H0K1 whole entry, looked up): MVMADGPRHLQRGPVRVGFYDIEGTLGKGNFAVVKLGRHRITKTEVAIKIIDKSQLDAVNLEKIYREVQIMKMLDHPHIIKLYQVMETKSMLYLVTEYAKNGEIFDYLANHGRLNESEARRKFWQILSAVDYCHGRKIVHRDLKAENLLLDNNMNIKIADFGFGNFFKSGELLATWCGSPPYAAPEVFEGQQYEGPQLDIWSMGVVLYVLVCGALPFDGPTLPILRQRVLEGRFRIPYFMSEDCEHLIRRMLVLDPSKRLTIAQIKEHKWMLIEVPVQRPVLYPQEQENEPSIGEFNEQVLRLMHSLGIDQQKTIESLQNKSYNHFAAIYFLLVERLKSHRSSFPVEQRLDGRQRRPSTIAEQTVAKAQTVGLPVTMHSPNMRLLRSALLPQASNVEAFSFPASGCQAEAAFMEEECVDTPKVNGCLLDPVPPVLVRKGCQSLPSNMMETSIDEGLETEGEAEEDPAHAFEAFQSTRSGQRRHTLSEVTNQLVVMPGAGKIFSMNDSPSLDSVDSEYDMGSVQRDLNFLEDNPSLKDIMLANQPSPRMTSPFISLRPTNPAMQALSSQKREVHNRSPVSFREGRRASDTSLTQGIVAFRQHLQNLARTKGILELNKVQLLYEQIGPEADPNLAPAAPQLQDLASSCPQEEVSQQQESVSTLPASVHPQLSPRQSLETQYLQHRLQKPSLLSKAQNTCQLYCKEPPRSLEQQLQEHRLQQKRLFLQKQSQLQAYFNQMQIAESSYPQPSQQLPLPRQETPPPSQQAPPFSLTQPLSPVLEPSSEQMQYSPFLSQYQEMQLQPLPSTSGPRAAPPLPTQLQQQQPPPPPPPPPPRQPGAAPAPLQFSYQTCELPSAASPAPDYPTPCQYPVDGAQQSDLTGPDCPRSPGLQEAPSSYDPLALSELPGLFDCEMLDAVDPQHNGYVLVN
Serine/threonine-protein kinase pim-2 (Homo sapiens), sequence (Q9P1W9 whole entry, looked up): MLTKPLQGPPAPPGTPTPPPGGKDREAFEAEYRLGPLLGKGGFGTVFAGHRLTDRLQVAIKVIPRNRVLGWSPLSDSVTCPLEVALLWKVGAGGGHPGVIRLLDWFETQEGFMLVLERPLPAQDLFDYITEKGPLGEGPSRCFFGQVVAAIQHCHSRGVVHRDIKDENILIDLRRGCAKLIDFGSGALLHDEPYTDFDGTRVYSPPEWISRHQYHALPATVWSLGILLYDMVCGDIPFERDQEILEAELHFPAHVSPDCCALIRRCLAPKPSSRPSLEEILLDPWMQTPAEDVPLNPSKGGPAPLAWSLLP

In the case of `C[C@H](NC(=O)Nc1cc2[nH]ncc2c(CO)n1)c1ccccn1` [ERKi-NC], the residual activity [1, 46] is reported as 88%, the residual activity [2, 46] is reported as 100% and the residual activity [3, 46] is reported as 100%. For the same compound, the residual activity [4, 46] was 100%, the residual activity [5, 46] was 100% and the residual activity [6, 46] was 66%. The residual activity [7, 46] was 99.3%, the residual activity [8, 46] was 78.7% and the residual activity [9, 46] was 100%. It also gave a residual activity [10, 46] of 78.8%, a residual activity [11, 46] of 71.1% and a residual activity [12, 46] of 100%. For the same compound, the residual activity [13, 46] was 96.9%, the residual activity [14, 46] was 100% and the residual activity [15, 46] was 68.7%. The residual activity [16, 46] was 95.5%, the residual activity [17, 46] was 100% and the residual activity [18, 46] was 95.3%. The residual activity [19, 46] was 17.6%, the residual activity [20, 46] was 100% and the residual activity [21, 46] was 100%. It also gave a residual activity [22, 46] of 94%, a residual activity [23, 46] of 100% and a residual activity [24, 46] of 90%. The residual activity [25, 46] was 78.2%, the residual activity [26, 46] was 89.4% and the residual activity [27, 46] was 81.5%. The residual activity [28, 46] was 100%, the residual activity [29, 46] was 100% and the residual activity [30, 46] was 100%. The IC50 [31] was 1.78 µM (not active), the residual activity [32, 46] was 42.4% and the residual activity [33, 46] was 85.2%. It also gave a residual activity [34, 46] of 76.1%, a residual activity [35, 46] of 98.9% and a residual activity [36, 46] of 100%. For the same compound, the inhibition [37] was 7.64%, the residual activity [38, 46] was 53.1% and the residual activity [39, 46] was 100%. The residual activity [40, 46] was 100%, the residual activity [41, 46] was 100% and the residual activity [42, 46] was 100%. For the same compound, the residual activity [43, 46] was 100%, the residual activity [44, 46] was 42.7% and the residual activity [45, 46] was 100%.

In the case of `C[C@@H](NC(=O)Nc1cc2[nH]ncc2c(CO)n1)c1ccccc1` [ERKi], the residual activity [1, 47] is reported as 95.2%, the residual activity [2, 47] is reported as 91.1% and the residual activity [3, 47] is reported as 92.2%. For the same compound, the residual activity [4, 47] was 85.3%, the residual activity [5, 47] was 81.9% and the residual activity [6, 47] was 64.7%. It also gave a residual activity [7, 47] of 89.9%, a residual activity [8, 47] of 97% and a residual activity [9, 47] of 100%. The residual activity [10, 47] was 81.1%, the residual activity [11, 47] was 100% and the residual activity [12, 47] was 78.8%. It also gave a residual activity [13, 47] of 100%, a residual activity [14, 47] of 82.7% and a residual activity [15, 47] of 89%. It also gave a residual activity [16, 47] of 84.8%, a residual activity [17, 47] of 48.6% and a residual activity [18, 47] of 94.1%. The residual activity [19, 47] was 89.1%, the residual activity [20, 47] was 100% and the residual activity [21, 47] was 77.1%. The residual activity [22, 47] was 85.7%, the residual activity [23, 47] was 100% and the residual activity [24, 47] was 100%. For the same compound, the residual activity [25, 47] was 90.3%, the residual activity [26, 47] was 100% and the residual activity [27, 47] was 94.8%. It also gave a residual activity [28, 47] of 80.5%, a residual activity [29, 47] of 96.9% and a residual activity [30, 47] of 85%. For the same compound, the IC50 [31] was 0.0018 µM (active), the residual activity [32, 47] was 77% and the residual activity [33, 47] was 100%. The residual activity [34, 47] was 100%, the residual activity [35, 47] was 68.1% and the residual activity [36, 47] was 73.6%. For the same compound, the inhibition [37] was 7.44%, the residual activity [38, 47] was 100% and the residual activity [39, 47] was 79.1%. The residual activity [40, 47] was 55.1%, the residual activity [41, 47] was 73.5% and the residual activity [42, 47] was 100%. The residual activity [43, 47] was 100%, the residual activity [44, 47] was 88.4% and the residual activity [45, 47] was 93.7%.
